Values joined by “and” are separate entries in the source; they are usually repeats but may differ in a detail not shown here. Equal values may be shown once.
System: DBA/1 mice, CIA model
Experiment: Collagen-induced arthritis model in mice
Type: in vivo, mouse
Parameters: Total AUC Sum (d1-11) / Total AUC Sum (d1-11), Mean: scale not given here
Conditions: MTX 1.5 mg/kg PO; for Summed Prophylactic (Non-Enrollment) Paw Score / Total AUC Sum (d1-11), Prophylactic (Non-Enrollment) Paw Score: QD
Protocol: Collagen-induced arthritis (CIA) model was performed at Bolder BioPATH, USA. Study design and animal usage was approved by Bolder BioPATH’s Institutional Animal Care and Use Committee. CIA was induced in 6–7 week old male DBA/1 mice with body weight of 15–26 g (Harlan, Inc) by intradermal injection of Freund’s Complete Adjuvant (Difco) containing bovine type II collagen (Bolder BioPATH) on day 0 and again on day 21 according to the standard protocol. […] After that mice were randomized into six groups: a control group of four, vehicle group and four treatment groups of ten mice each. […] Each paw was scored daily for inflammation. Therapeutic and prophylactic paws were considered. At study termination mice were euthanized by CO2 inhalation followed by cervical dislocation. Fore paws, hind paws, and knees were removed for microscopy.
Mice were weighed on arthritis days 1, 3, 5, 7, 9, and 11 (prior to necropsy). Daily clinical scores were given for each of the paws (right front, left front, right rear, left rear) on days 1–11 using the following criteria:
After 1–2 days in fixative and 4–5 days in 5% formic acid for decalcification, tissues were trimmed, processed for paraffin embedding, sectioned at 8 µm and stained with toluidine blue. Hind paws and knees were embedded and sectioned in the frontal plane. Two joints from each animal were processed for histopathology evaluation. The joints were then scored by two independent readers as indicated below. When scoring, severity of changes as well as number of individual joints affected were considered. When only 1–3 joints of the paws or ankles out of a possibility of numerous metacarpal/metatarsal/digit or tarsal/tibiotarsal joints were affected, an arbitrary assignment of a maximum score of 1, 2 or 3 for parameters below was given depending on severity of changes. If more than 3 joints were involved, the criteria below were applied to the most severely affected/majority of joints.

[1] = all joints, QD (Group 3), group mean
[2] = all joints, QD (Group 3), individual animals

CN(Cc1cnc2nc(N)nc(N)c2n1)c1ccc(C(=O)N[C@@H](CCC(=O)O)C(=O)O)cc1 [MTX, methotrexate, reference compound]
Summed Prophylactic (Non-Enrollment) Paw Score (Day 11, group mean): 7.40 | Summed Prophylactic (Non-Enrollment) Paw Score (Day 11, individual animals): 6 and 5 and 4 and 14 and 10 and 8 | Total AUC Sum (d1-11), Prophylactic (Non-Enrollment) Paw Score (group mean): 52.20 | Total AUC Sum (d1-11), Prophylactic (Non-Enrollment) Paw Score (individual animals): 41.0 and 33.5 and 35.0 and 16.0 and 80.0 and 101.0 and 88.0 and 58.0 and 34.5 | % inhibition, Bone Resorption score (all joints, QD (Group 3)): 8% | % inhibition, Cartilage Damage score (all joints, QD (Group 3)): 3% | % inhibition, Inflammation score (all joints, QD (Group 3)): 4% | % inhibition, Pannus score (all joints, QD (Group 3)): 8% | % inhibition, Periosteal Bone Formation score (all joints, QD (Group 3)): 3% | % inhibition, Periosteal Bone Width (all joints, QD (Group 3)): 6% | % inhibition, Summed Scores (all joints, QD (Group 3)): 5% | Histopathology Scores Bone Resorption, Mean [1]: 1.58 | Histopathology Scores Cartilage Damage, Mean [1]: 3.21 | Histopathology Scores Inflammation, Mean [1]: 3.55 | Histopathology Scores Pannus, Mean [1]: 1.58 | Histopathology Scores Periosteal Bone Formation, Mean [1]: 1.10 | Histopathology Scores Summed Scores, Mean [1]: 11.03 | Periosteal Bone Width (40*25x measure), Mean [1]: 92.67 μm | Histopathology Scores Bone Resorption [2]: 1.17 and 1.67 and 1.08 and 1.00 and 2.33 and 1.58 and 1.25 and 1.83 and 2.25 | Histopathology Scores Cartilage Damage [2]: 1.92 and 3.00 and 1.67 and 2.17 and 4.17 and 4.33 and 3.83 and 3.17 and 4.83 | Histopathology Scores Inflammation [2]: 2.33 and 3.08 and 2.50 and 2.25 and 4.67 and 4.83 and 4.00 and 3.33 and 3.83 | Histopathology Scores Pannus [2]: 1.17 and 1.67 and 1.08 and 1.00 and 2.33 and 1.58 and 1.25 and 1.83 and 2.25 | Histopathology Scores Periosteal Bone Formation [2]: 0.83 and 1.33 and 0.50 and 1.17 and 1.50 | Histopathology Scores Summed Scores [2]: 7.42 and 10.75 and 6.83 and 7.25 and 13.33 and 15.33 and 12.17 and 9.67 and 12.00 and 15.50 | Periosteal Bone Width (40*25x measure) [2]: 80.00 μm and 106.67 μm and 40.00 μm and 140.00 μm and 86.67 μm and 60.00 μm and 146.67 μm | % inhibition to Vehicle, Total AUC Sum (d1-11) (therapeutic/enrollment paw score, QD (Group 3)): 3% | Total AUC Sum (d1-11), Mean (therapeutic/enrollment paw score, QD (Group 3), group mean): 61.65 | Total AUC Sum (d1-11) (therapeutic/enrollment paw score, QD (Group 3), individual animals): 43 and 36 and 65 and 75 and 130 and 82 and 38 and 78 | % inhibition to Vehicle, paw score Day 1 (therapeutic/enrollment paws, Day 1, QD (Group 3)): 0% | Summed Therapeutic (Enrollment) Paw Score Day 1, Mean (therapeutic/enrollment paws, Day 1, QD (Group 3), group mean): 3.20 | Summed Therapeutic (Enrollment) Paw Score Day 1 (therapeutic/enrollment paws, Day 1, QD (Group 3), individual animals): 2 and 4 and 6 | % inhibition to Vehicle, paw score Day 2 (therapeutic/enrollment paws, Day 2, QD (Group 3)): 9% | Summed Therapeutic (Enrollment) Paw Score Day 2, Mean (therapeutic/enrollment paws, Day 2, QD (Group 3), group mean): 4.30 | Summed Therapeutic (Enrollment) Paw Score Day 2 (therapeutic/enrollment paws, Day 2, QD (Group 3), individual animals): 3 and 2 and 5 and 6 and 8 | % inhibition to Vehicle, paw score Day 3 (therapeutic/enrollment paws, Day 3, QD (Group 3)): 12% | Summed Therapeutic (Enrollment) Paw Score Day 3, Mean (therapeutic/enrollment paws, Day 3, QD (Group 3), group mean): 5.20 | Summed Therapeutic (Enrollment) Paw Score Day 3 (therapeutic/enrollment paws, Day 3, QD (Group 3), individual animals): 4 and 3 and 5 and 7 and 9 | % inhibition to Vehicle, paw score Day 4 (therapeutic/enrollment paws, Day 4, QD (Group 3)): −2% | Summed Therapeutic (Enrollment) Paw Score Day 4, Mean (therapeutic/enrollment paws, Day 4, QD (Group 3), group mean): 6.30 | Summed Therapeutic (Enrollment) Paw Score Day 4 (therapeutic/enrollment paws, Day 4, QD (Group 3), individual animals): 4 and 3 and 7 and 8 and 12 and 9 | % inhibition to Vehicle, paw score Day 5 (therapeutic/enrollment paws, Day 5, QD (Group 3)): −2% | Summed Therapeutic (Enrollment) Paw Score Day 5, Mean (therapeutic/enrollment paws, Day 5, QD (Group 3), group mean): 6.70 | Summed Therapeutic (Enrollment) Paw Score Day 5 (therapeutic/enrollment paws, Day 5, QD (Group 3), individual animals): 4 and 7 and 8 and 15 and 9 | % inhibition to Vehicle, paw score Day 6 (therapeutic/enrollment paws, Day 6, QD (Group 3)): −2% | Summed Therapeutic (Enrollment) Paw Score Day 6, Mean (therapeutic/enrollment paws, Day 6, QD (Group 3), group mean): 6.70 | Summed Therapeutic (Enrollment) Paw Score Day 6 (therapeutic/enrollment paws, Day 6, QD (Group 3), individual animals): 4 and 7 and 8 and 15 and 9 | % inhibition to Vehicle, paw score Day 7 (therapeutic/enrollment paws, Day 7, QD (Group 3)): 0% | Summed Therapeutic (Enrollment) Paw Score Day 7, Mean (therapeutic/enrollment paws, Day 7, QD (Group 3), group mean): 6.80 | Summed Therapeutic (Enrollment) Paw Score Day 7 (therapeutic/enrollment paws, Day 7, QD (Group 3), individual animals): 5 and 4 and 7 and 8 and 15 and 9 | % inhibition to Vehicle, paw score Day 8 (therapeutic/enrollment paws, Day 8, QD (Group 3)): 3% | Summed Therapeutic (Enrollment) Paw Score Day 8, Mean (therapeutic/enrollment paws, Day 8, QD (Group 3), group mean): 6.80 | Summed Therapeutic (Enrollment) Paw Score Day 8 (therapeutic/enrollment paws, Day 8, QD (Group 3), individual animals): 5 and 4 and 7 and 8 and 15 and 9 | % inhibition to Vehicle, paw score Day 9 (therapeutic/enrollment paws, Day 9, QD (Group 3)): 5% | Summed Therapeutic (Enrollment) Paw Score Day 9, Mean (therapeutic/enrollment paws, Day 9, QD (Group 3), group mean): 6.90 | Summed Therapeutic (Enrollment) Paw Score Day 9 (therapeutic/enrollment paws, Day 9, QD (Group 3), individual animals): 5 and 4 and 7 and 8 and 15 and 9 | % inhibition to Vehicle, paw score Day 10 (therapeutic/enrollment paws, Day 10, QD (Group 3)): 7% | Summed Therapeutic (Enrollment) Paw Score Day 10, Mean (therapeutic/enrollment paws, Day 10, QD (Group 3), group mean): 6.90 | Summed Therapeutic (Enrollment) Paw Score Day 10 (therapeutic/enrollment paws, Day 10, QD (Group 3), individual animals): 5 and 4 and 7 and 8 and 15 and 9 | % inhibition to Vehicle, paw score Day 11 (therapeutic/enrollment paws, Day 11, QD (Group 3)): 7% | Summed Therapeutic (Enrollment) Paw Score Day 11, Mean (therapeutic/enrollment paws, Day 11, QD (Group 3), group mean): 6.90 | Summed Therapeutic (Enrollment) Paw Score Day 11 (therapeutic/enrollment paws, Day 11, QD (Group 3), individual animals): 5 and 4 and 7 and 8 and 15 and 9

Reference: PMC8632988, “Inhibition of SYK and cSrc kinases can protect bone and cartilage in preclinical models of osteoarthritis and rheumatoid arthritis” (Scientific Reports, 2021)
